Test results taken from US8269008B2, “Oxazolopyridine and isoxazolopyridine derivatives for use in the treatment of HIF-mediated conditions” (FibroGen, Inc., priority 2007, dated 2012).

Each molecule was assayed against T1, HIF-PH2 (EGLN1) (Homo sapiens, UniProt Q9GZT9) (assay: HIF-PH assay (14CO2 capture, peptide-dependent turnover)). Settings: Concentration 22.22 μM.
T1 construct: made in house; host or cells: insect Hi5 cells
Format: biochemical
Source text: Ketoglutaric acid α-[1-^14C]-sodium salt, alpha-ketoglutaric acid sodium salt, and HPLC purified peptide may be obtained from commercial sources, e.g., Perkin-Elmer (Wellesley Mass.), Sigma-Aldrich, and SynPep Corp. (Dublin Calif.), respectively. Peptides for use in the assay may be fragments of HIFα as described above or as disclosed in International Publication WO 2005/118836, incorporated by reference herein. For example, a HLF peptide for use in the HIF-PH assay is [methoxycoumarin]-DLDLEALAPYIPADDDFQL-amide. HIF-PH, e.g., HIF-PH2 (EGLN1), can be expressed in, e.g., insect Hi5 cells, and partially purified, e.g., through a SP ion exchange chromatography column. Enzyme activity is determined by capturing ^14CO2 using an assay described by Kivirikko and Myllyla (1982, Methods Enzymol. 82:245-304). Assay reactions contain 50 mM HEPES (pH 7.4), 100 μM α-ketoglutaric acid sodium salt, 0.30 μCi/mL ketoglutaric acid α-[1-^14C]-sodium salt, 40 μM FeSO4, 1 mM ascorbate, 1541.8 units/mL Catalase, with or without 50 μM peptide substrate and various concentrations of compound of the invention. Reactions are initiated by addition of HIF-PH enzyme.
The peptide-dependent percent turnover is calculated by subtracting percent turnover in the absence of peptide from percent turnover in the presence of substrate peptide. Percent inhibition and IC50 are calculated using peptide-dependent percent turnover at given inhibitor concentrations. Calculation of IC50 values for each inhibitor is conducted using GraFit software (Erithacus Software Ltd., Surrey UK). […]

T1 sequence (Q9GZT9 whole entry, species assumed): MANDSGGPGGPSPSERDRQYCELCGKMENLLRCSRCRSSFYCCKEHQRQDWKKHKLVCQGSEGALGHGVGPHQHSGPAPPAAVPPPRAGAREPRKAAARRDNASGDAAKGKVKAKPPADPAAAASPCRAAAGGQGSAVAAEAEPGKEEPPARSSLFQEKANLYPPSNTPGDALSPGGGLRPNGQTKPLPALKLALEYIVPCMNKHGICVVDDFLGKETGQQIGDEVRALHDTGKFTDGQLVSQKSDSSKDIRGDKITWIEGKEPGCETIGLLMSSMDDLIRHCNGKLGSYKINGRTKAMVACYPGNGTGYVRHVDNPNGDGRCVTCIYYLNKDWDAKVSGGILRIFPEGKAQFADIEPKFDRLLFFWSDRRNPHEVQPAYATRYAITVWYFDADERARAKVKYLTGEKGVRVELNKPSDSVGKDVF

inhibition at 22.22 µM [%]	Compound
98.4	O=C(O)CNC(=O)c1nc(-c2ccccc2)c2onc(-c3ccccc3)c2c1O [Example 13, [(4-Hydroxy-3,7-diphenyl-isoxazolo[5,4-c]pyridine-5-carbonyl)-amino]-acetic acid]
98.8	O=C(O)CNC(=O)c1ncc2onc(-c3ccc(Cl)cc3)c2c1O [Example 14, {[3-(4-Chloro-phenyl)-4-hydroxy-isoxazolo[5,4-c]pyridine-5-carbonyl]-amino}-acetic acid]
95.7	O=C(O)CNC(=O)c1ncc2onc(-c3ccccc3Cl)c2c1O [Example 15, {[3-(2-Chloro-phenyl)-4-hydroxy-isoxazolo[5,4-c]pyridine-5-carbonyl]-amino}-acetic acid]
97.9	COc1ccc(-c2noc3cnc(C(=O)NCC(=O)O)c(O)c23)cc1 [Example 16, {[4-Hydroxy-3-(4-methoxy-phenyl)-isoxazolo[5,4-c]pyridine-5-carbonyl]-amino}-acetic acid]
98.6	O=C(O)CNC(=O)c1ncc2onc(-c3cccc(Cl)c3)c2c1O [Example 17, {[3-(3-Chloro-phenyl)-4-hydroxy-isoxazolo[5,4-c]pyridine-5-carbonyl]-amino}-acetic acid]
88.2	O=C(O)CNC(=O)c1ncc2onc(-c3c(F)cccc3Cl)c2c1O [Example 18, {[3-(2-Chloro-6-fluoro-phenyl)-4-hydroxy-isoxazolo[5,4-c]pyridine-5-carbonyl]-amino}-acetic acid]
97.9	O=C(O)CNC(=O)c1ncc2onc(-c3ccc(F)cc3)c2c1O [Example 19, {[3-(4-Fluoro-phenyl)-4-hydroxy-isoxazolo[5,4-c]pyridine-5-carbonyl]-amino}-acetic acid]
98.5	N#Cc1nc(C(=O)NCC(=O)O)c(O)c2c(-c3ccccc3)noc12 [Example 20, [(7-Cyano-4-hydroxy-3-phenyl-isoxazolo[5,4-c]pyridine-5-carbonyl)-amino]-acetic acid]
98.7	O=C(O)CNC(=O)c1nc(Br)c2onc(-c3ccc(F)cc3)c2c1O [Example 22, {[7-Bromo-3-(4-fluoro-phenyl)-4-hydroxy-isoxazolo[5,4-c]pyridine-5-carbonyl]-amino}-acetic acid]
98.2	N#Cc1nc(C(=O)NCC(=O)O)c(O)c2c(-c3ccc(F)cc3)noc12 [Example 23, {[7-Cyano-3-(4-fluoro-phenyl)-4-hydroxy-isoxazolo[5,4-c]pyridine-5-carbonyl]-amino}-acetic acid]
100	O=C(O)CNC(=O)c1nc(Br)c2onc(-c3ccc(Cl)cc3)c2c1O [Example 24, {[7-Bromo-3-(4-chloro-phenyl)-4-hydroxy-isoxazolo[5,4-c]pyridine-5-carbonyl]-amino}-acetic acid]
98.7	N#Cc1nc(C(=O)NCC(=O)O)c(O)c2c(-c3ccc(Cl)cc3)noc12 [Example 25, {[3-(4-Chloro-phenyl)-7-cyano-4-hydroxy-isoxazolo[5,4-c]pyridine-5-carbonyl]-amino}-acetic acid]
93.8	Cc1nc(C(=O)NCC(=O)O)c(O)c2c(-c3ccc(F)cc3)noc12 [Example 26, {[3-(4-Fluoro-phenyl)-4-hydroxy-7-methyl-isoxazolo[5,4-c]pyridine-5-carbonyl]-amino}-acetic acid]
96.7	C#Cc1nc(C(=O)NCC(=O)O)c(O)c2c(-c3ccc(Cl)cc3)noc12 [Example 28, {[3-(4-Chloro-phenyl)-7-ethynyl-4-hydroxy-isoxazolo[5,4-c]pyridine-5-carbonyl]-amino}-acetic acid]
99.4	O=C(O)CNC(=O)c1ncc2onc(-c3ccc(-c4ccccc4)cc3)c2c1O [Example 29, [(3-Biphenyl-4-yl-4-hydroxy-isoxazolo[5,4-c]pyridine-5-carbonyl)-amino]-acetic acid]
99.1	O=C(O)CNC(=O)c1ncc2onc(-c3cccc(OC(F)(F)F)c3)c2c1O [Example 32, {[4-Hydroxy-3-(3-trifluoromethoxy-phenyl)-isoxazolo[5,4-c]pyridine-5-carbonyl]-amino}-acetic acid]
99.6	O=C(O)CNC(=O)c1nc(-c2cccnc2)c2onc(-c3ccccc3)c2c1O [Example 33, [(4-Hydroxy-3-phenyl-7-pyridin-3-yl-isoxazolo[5,4-c]pyridine-5-carbonyl)-amino]-acetic acid]
97.8	O=C(O)CNC(=O)c1ncc2onc(-c3ccc(C(F)(F)F)cc3)c2c1O [Example 34, {[4-Hydroxy-3-(4-trifluoromethyl-phenyl)-isoxazolo[5,4-c]pyridine-5-carbonyl]-amino}-acetic acid]
86.3	O=C(O)CNC(=O)c1ncc2onc(-c3ccccc3OC(F)(F)F)c2c1O [Example 35, {[4-Hydroxy-3-(2-trifluoromethoxy-phenyl)-isoxazolo[5,4-c]pyridine-5-carbonyl]-amino}-acetic acid]

Same assay, conditions: Concentration 200.00 μM

inhibition at 200 µM [%]	Compound	% Inhibition (HIF-PH2) [%]
99.8	O=C(O)CNC(=O)c1ncc2nc(-c3ccccc3)oc2c1O [Example 1, [(7-Hydroxy-2-phenyl-oxazolo[4,5-c]pyridine-6-carbonyl)-amino]-acetic acid]	
100	O=C(O)CNC(=O)c1ncc2nc(-c3ccc(F)cc3)oc2c1O [Example 2, {[2-(4-Fluoro-phenyl)-7-hydroxy-oxazolo[4,5-c]pyridine-6-carbonyl]-amino}-acetic acid]	
48.9	Cc1nc(C(=O)NCC(=O)O)c(O)c2oc(-c3ccccc3)nc12 [Example 3, [(7-Hydroxy-4-methyl-2-phenyl-oxazolo[4,5-c]pyridine-6-carbonyl)-amino]-acetic acid]	
99.2	CCc1nc(C(=O)NCC(=O)O)c(O)c2oc(-c3ccccc3)nc12 [Example 4, [(4-Ethyl-7-hydroxy-2-phenyl-oxazolo[4,5-c]pyridine-6-carbonyl)-amino]-acetic acid]	
98.7	O=C(O)CNC(=O)c1nc(-c2ccccc2)c2nc(-c3ccccc3)oc2c1O [Example 5, [(7-Hydroxy-2,4-diphenyl-oxazolo[4,5-c]pyridine-6-carbonyl)-amino]-acetic acid]	
99	O=C(O)CNC(=O)c1nc(C#Cc2ccccc2)c2nc(-c3ccccc3)oc2c1O [Example 6, [(7-Hydroxy-2-phenyl-4-phenylethynyl-oxazolo[4,5-c]pyridine-6-carbonyl)-amino]-acetic acid]	
99.5	CCCCc1nc(C(=O)NCC(=O)O)c(O)c2oc(-c3ccccc3)nc12 [Example 7, [(4-Butyl-7-hydroxy-2-phenyl-oxazolo[4,5-c]pyridine-6-carbonyl)-amino]-acetic acid]	
97.3	O=C(O)CNC(=O)c1nc(-c2ccc(F)cc2)c2nc(-c3ccccc3)oc2c1O [Example 8, {[4-(4-Fluoro-phenyl)-7-hydroxy-2-phenyl-oxazolo[4,5-c]pyridine-6-carbonyl]-amino}-acetic acid]	
98.6	O=C(O)CNC(=O)c1ncc2oc(-c3ccccc3)nc2c1O [Example 9, [(7-Hydroxy-2-phenyl-oxazolo[5,4-c]pyridine-6-carbonyl)-amino]-acetic acid]	
99	COc1cccc(-c2nc(C(=O)NCC(=O)O)c(O)c3oc(-c4ccccc4)nc23)c1 [Example 10, {[7-Hydroxy-4-(3-methoxy-phenyl)-2-phenyl-oxazolo[4,5-c]pyridine-6-carbonyl]-amino}-acetic acid]	
99.9	O=C(O)CNC(=O)c1ncc2onc(-c3ccccc3)c2c1O [Example 11, [(4-Hydroxy-3-phenyl-isoxazolo[5,4-c]pyridine-5-carbonyl)-amino]-acetic acid]	
98.6	Cc1nc(C(=O)NCC(=O)O)c(O)c2c(-c3ccccc3)noc12 [Example 12, [(4-Hydroxy-7-methyl-3-phenyl-isoxazolo[5,4-c]pyridine-5-carbonyl)-amino]-acetic acid]	
99.4	Cc1nc(C(=O)NCC(=O)O)c(O)c2c(-c3ccc(Cl)cc3)noc12 [Example 21, {[3-(4-Chloro-phenyl)-4-hydroxy-7-methyl-isoxazolo[5,4-c]pyridine-5-carbonyl]-amino}-acetic acid]	
	O=C(O)CNC(=O)c1nc(NCC(=O)O)c2onc(-c3cccc(Cl)c3)c2c1O [Example 27, {[3-(3-Chloro-phenyl)-7-(ethanic acid-2-yl)amino-4-hydroxy-isoxazolo[5,4-c]pyridine-5-carbonyl]-amino}-acetic acid]	96.45
100	C[C@H](NC(=O)c1ncc2onc(-c3ccccc3)c2c1O)C(=O)O [Example 30, 2-[(4-Hydroxy-3-phenyl-isoxazolo[5,4-c]pyridine-5-carbonyl)-amino]-(S)-propionic acid]	
61	C[C@@H](NC(=O)c1ncc2onc(-c3ccccc3)c2c1O)C(=O)O [Example 31, 2-[(4-Hydroxy-3-phenyl-isoxazolo[5,4-c]pyridine-5-carbonyl)-amino]-(R)-propionic acid]	
